This note sets out measurements from US8828908B2, “Herbicidally active bicyclic 1,3-dione compounds” (Syngenta Limited, priority 2007, dated 2014).

Each structure is given as a SMILES string.

What all share (assay type): in vivo
The test system of assay [1] is Setaria faberi (SETFA). The assay can be described thus: Example B pre-emergence herbicidal greenhouse test. As to conditions: 480 h, evaluated after 20 days, 100=total damage to plant, 0=no damage. The method, then:
(§1) Seeds of a variety of test species were sown in standard soil in pots. After cultivation for one day (pre-emergence) or after 10 days cultivation (post-emergence) under controlled conditions in a glasshouse, the plants were sprayed with an aqueous spray solution derived from the formulation of the technical active ingredient in 0.6 ml acetone and 45 ml formulation solution containing 10.6% Emulsogen EL (Registry number 61791-12-6), 42.2% N-methylpyrrolidone, 42.2% dipropylene glycol monomethyl ether (Registry number 34590-94-8) and 0.2% X-77 (Registry number 11097-66-8). The test plants were then grown in a greenhouse under optimum conditions until, 15 days later for post-emergence and 20 days for pre-emergence, the test was evaluated (100=total damage to plant; 0=no damage to plant).
(§2) Alopecurus myosuroides (ALOMY), Avena fatua (AVEFA), Lolium perenne (LOLPE), Setaria faberi (SETFA), Digitaria sanguinalis (DIGSA), Echinochloa crus-galli (ECHCG)

Assay [2] concerns Avena fatua (AVEFA). The assay is described as follows: Example B pre-emergence herbicidal greenhouse test. As to conditions: 480 h, evaluated after 20 days, 100=total damage to plant, 0=no damage. Here is the method: as §1, §2
The test system of assay [3] is Alopecurus myosuroides (ALOMY). The assay is described as follows: Example B pre-emergence herbicidal greenhouse test. The following applies: 480 h, evaluated after 20 days, 100=total damage to plant, 0=no damage. The method, then:
as §1, §2

The test system of assay [4] is Echinochloa crus-galli (ECHCG). The assay can be described thus: Example B pre-emergence herbicidal greenhouse test. The following applies: 480 h, evaluated after 20 days, 100=total damage to plant, 0=no damage. Here is the method:
as §1, §2

Assay [5] has as its system Lolium perenne (LOLPE). The assay is described as follows: Example B pre-emergence herbicidal greenhouse test. The following applies: 480 h, evaluated after 20 days, 100=total damage to plant, 0=no damage. Here is the method:
as §1, §2

Assay [6] concerns Digitaria sanguinalis (DIGSA). The assay can be described thus: Example B pre-emergence herbicidal greenhouse test. The following applies: 480 h, evaluated after 20 days, 100=total damage to plant, 0=no damage. The method, then:
as §1, §2

The subject of assay [7] is Setaria faberi (SETFA). The assay can be described thus: Example B post-emergence herbicidal greenhouse test. As to conditions: 360 h, evaluated after 15 days, 100=total damage to plant, 0=no damage. The method, then: as §1, §2
Assay [8] concerns Avena fatua (AVEFA). The assay is described as above. As to conditions: 360 h, evaluated after 15 days, 100=total damage to plant, 0=no damage. Here is the method:
as §1, §2

For assay [9], the system named is Alopecurus myosuroides (ALOMY). The assay is described as above. As to conditions: 360 h, evaluated after 15 days, 100=total damage to plant, 0=no damage. Here is the method:
as §1, §2

The test system of assay [10] is Echinochloa crus-galli (ECHCG). The description is as above. The following applies: 360 h, evaluated after 15 days, 100=total damage to plant, 0=no damage. Here is the method: as §1, §2
The test system of assay [11] is Lolium perenne (LOLPE). The assay is described as above. As to conditions: 360 h, evaluated after 15 days, 100=total damage to plant, 0=no damage. Here is the method:
as §1, §2

Assay [12] has as its system Digitaria sanguinalis (DIGSA). Described as above. The following applies: 360 h, evaluated after 15 days, 100=total damage to plant, 0=no damage. The method, then:
as §1, §2

Consider `Cc1ccc(-c2ccc(Cl)cc2C)cc1C1=C(O)[C@H]2CC[C@H](C2)C1=O` (single isomer, unassigned) [Compound T26], for which the pest or weed control (as a rule, the degree to which the test organism was suppressed or injured, in per cent) at 250 g/ha in the assay with Setaria faberi (SETFA) [1] amounted to 50%; in the assay on Avena fatua (AVEFA) [2] it was 0%; in assay [3], 0%; in assay [4], 30%; in the assay on Lolium perenne (LOLPE) [5], 20%; in [6], 0%. The pest or weed control at 125 g/ha stood at 60% with Setaria faberi (SETFA) [7]; 0% in the assay on Avena fatua (AVEFA) [8]; 20% in assay [9]; 60% in [10]; 10% in the assay with Lolium perenne (LOLPE) [11]; 10% in assay [12].

As for `Cc1ccc(-c2ccc(Cl)cc2F)cc1C1=C(O)[C@H]2CC[C@H](C2)C1=O` (single isomer, unassigned) [Compound T27], the pest or weed control at 250 g/ha worked out at 100% in the assay on Setaria faberi (SETFA) [1]; 50% in the assay on Avena fatua (AVEFA) [2]; 60% in assay [3]; 80% in [4]; 70% in the assay on Lolium perenne (LOLPE) [5]; 80% in [6]. In addition, the pest or weed control at 125 g/ha came to 90% in the assay with Setaria faberi (SETFA) [7]; 70% in the assay with Avena fatua (AVEFA) [8]; 30% in [9]; 80% in assay [10]; 30% in the assay on Lolium perenne (LOLPE) [11]; 70% in [12].

For `Cc1ccc(-c2cc(Cl)cc(Cl)c2)cc1C1=C(O)[C@H]2CC[C@H](C2)C1=O` (single isomer, unassigned) [Compound T28], the pest or weed control at 250 g/ha with Setaria faberi (SETFA) [1] is 0%; in the assay with Avena fatua (AVEFA) [2], 10%; in assay [3], 0%; in [4], 0%; in the assay with Lolium perenne (LOLPE) [5], 20%; in assay [6], 0%. For the same compound, the pest or weed control at 125 g/ha in the assay on Setaria faberi (SETFA) [7] was found to be 10%; with Avena fatua (AVEFA) [8] it was 10%; in assay [9] it was 20%; in [10] it was 0%; with Lolium perenne (LOLPE) [11] it was 0%; in [12], 0%.

As for `Cc1ccc(-c2ccc(F)c(Cl)c2)cc1C1=C(O)[C@H]2CC[C@H](C2)C1=O` (single isomer, unassigned) [Compound T29], the pest or weed control at 250 g/ha in the assay on Setaria faberi (SETFA) [1] is 70%; with Avena fatua (AVEFA) [2] it was 0%; in assay [3] it was 10%; in [4] it was 20%; with Lolium perenne (LOLPE) [5] it was 20%; in assay [6] it was 0%. In addition, the pest or weed control at 125 g/ha in the assay on Setaria faberi (SETFA) [7] was 60%; in the assay with Avena fatua (AVEFA) [8] it was 0%; in assay [9], 30%; in assay [10], 50%; in the assay on Lolium perenne (LOLPE) [11], 0%; in [12], 10%.

On to `COc1ccc(Cl)cc1-c1ccc(C)c(C2=C(O)[C@H]3CC[C@H](C3)C2=O)c1` (single isomer, unassigned) [Compound T30], for which the pest or weed control at 250 g/ha (in the assay on Setaria faberi (SETFA) [1]; in the assay with Avena fatua (AVEFA) [2]; in assay [3]; in [4]; in the assay on Lolium perenne (LOLPE) [5]; in assay [6]) was 0% throughout. Also, the pest or weed control at 125 g/ha came to 0% in the assay with Setaria faberi (SETFA) [7]; 10% in the assay on Avena fatua (AVEFA) [8]; 10% in assay [9]; 0% in assay [10]; 10% with Lolium perenne (LOLPE) [11]; 0% in [12].
